From ChEMBL document CHEMBL3525973, “Quantitative prediction of human intestinal glucuronidation effects on intestinal availability of UDP-glucuronosyltransferase substrates using in vitro data” (Drug Metab Dispos, 2012) come the findings set out here.

The term Papp denotes the rate of passage across a membrane or cell layer, normalised by area and donor concentration. By clearance is commonly meant a measure of how efficiently the substance is removed, as volume per time. Low readings indicate a low capacity for elimination, high ones a high capacity for elimination. A word on the fraction unbound: it is free concentration divided by total concentration. Higher therefore signals much free substance. A word on the microsomal CLint: it is a measure of how fast metabolising enzymes remove a compound, apart from limits set by blood flow. A high value points to rapid turnover. One may read the bioavailability as dose-corrected exposure relative to a reference, in per cent. Low values mean poor availability, high ones good availability.

The target in data set [1] is T1, UDP-glucuronosyltransferase 1A7 (Homo sapiens, UniProt Q9HAW7).
T1 sequence (Q9HAW7 whole entry): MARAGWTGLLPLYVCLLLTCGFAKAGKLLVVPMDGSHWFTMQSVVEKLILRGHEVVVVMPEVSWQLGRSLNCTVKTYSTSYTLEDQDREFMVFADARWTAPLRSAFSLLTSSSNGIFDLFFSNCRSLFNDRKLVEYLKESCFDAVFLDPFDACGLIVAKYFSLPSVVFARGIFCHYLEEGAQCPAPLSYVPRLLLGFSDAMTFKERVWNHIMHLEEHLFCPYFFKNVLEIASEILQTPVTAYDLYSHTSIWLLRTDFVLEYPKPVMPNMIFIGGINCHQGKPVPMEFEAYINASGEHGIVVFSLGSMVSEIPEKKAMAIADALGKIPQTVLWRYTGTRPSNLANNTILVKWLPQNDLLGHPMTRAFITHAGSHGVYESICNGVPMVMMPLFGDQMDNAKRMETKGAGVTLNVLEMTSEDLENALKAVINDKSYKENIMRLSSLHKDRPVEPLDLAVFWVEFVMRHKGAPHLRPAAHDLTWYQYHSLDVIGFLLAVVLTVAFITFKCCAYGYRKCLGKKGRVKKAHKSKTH
Description: Activity of human UGT1A7 expressed in insect cells assessed as reduction in compound level after 30 mins. The data set is classed as ADME. The following applies: 0.5 h.

Data set [2] is described as follows: Unbound intrinsic clearance in human intestinal microsomes assessed UGT-mediated glucuronidation clearance.
For data set [3], the target named is T2, UDP-glucuronosyltransferase 2B7 (Homo sapiens, UniProt P16662).
T2 sequence (P16662 whole entry): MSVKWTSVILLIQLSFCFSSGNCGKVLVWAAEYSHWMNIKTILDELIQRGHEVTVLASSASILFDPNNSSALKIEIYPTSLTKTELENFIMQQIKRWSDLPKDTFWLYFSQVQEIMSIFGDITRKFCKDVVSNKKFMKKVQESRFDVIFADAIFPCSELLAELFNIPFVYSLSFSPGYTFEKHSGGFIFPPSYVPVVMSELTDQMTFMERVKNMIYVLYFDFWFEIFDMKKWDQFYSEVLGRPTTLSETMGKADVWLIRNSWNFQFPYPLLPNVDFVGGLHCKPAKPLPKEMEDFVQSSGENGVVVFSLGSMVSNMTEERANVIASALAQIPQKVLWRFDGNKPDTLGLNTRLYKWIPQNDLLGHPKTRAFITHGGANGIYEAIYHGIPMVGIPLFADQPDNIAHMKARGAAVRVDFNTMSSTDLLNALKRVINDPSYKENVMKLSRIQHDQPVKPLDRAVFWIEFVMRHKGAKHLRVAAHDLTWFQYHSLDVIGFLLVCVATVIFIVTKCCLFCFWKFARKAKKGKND
Description: Activity of human UGT2B7 expressed in insect cells assessed as reduction in compound level after 30 mins. The data set is classed as ADME. The following applies: 0.5 h.

The target of data set [4] is T3, UDP-glucuronosyltransferase 1A9 (Homo sapiens, UniProt O60656).
T3 sequence (O60656 whole entry): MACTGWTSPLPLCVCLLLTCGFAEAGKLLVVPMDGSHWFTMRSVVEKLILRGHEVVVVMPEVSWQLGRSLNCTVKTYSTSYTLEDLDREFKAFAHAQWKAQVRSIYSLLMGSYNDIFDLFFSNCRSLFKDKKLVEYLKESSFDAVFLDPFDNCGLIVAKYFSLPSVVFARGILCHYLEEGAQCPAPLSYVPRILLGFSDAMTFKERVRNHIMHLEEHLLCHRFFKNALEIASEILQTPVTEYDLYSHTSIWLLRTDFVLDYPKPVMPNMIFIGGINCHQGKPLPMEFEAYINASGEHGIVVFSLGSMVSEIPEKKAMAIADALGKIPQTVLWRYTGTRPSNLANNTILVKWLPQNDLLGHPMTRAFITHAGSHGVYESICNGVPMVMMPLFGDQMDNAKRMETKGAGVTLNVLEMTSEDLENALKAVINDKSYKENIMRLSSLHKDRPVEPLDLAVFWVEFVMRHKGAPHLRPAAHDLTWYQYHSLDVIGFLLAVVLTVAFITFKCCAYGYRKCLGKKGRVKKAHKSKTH
Description: Activity of human UGT1A9 expressed in insect cells assessed as reduction in compound level after 30 mins. The class given is ADME. As to conditions: 0.5 h.

The nature of data set [5]: Apparent permeability by PAMPA method. For orientation: PAMPA measures passive passage across an artificial lipid membrane.
Another data set can be described thus: clinical. The following applies: human, in vivo.
Data set [6] has as its target T4, UDP-glucuronosyltransferase 2B15 (Homo sapiens, UniProt P54855).
T4 sequence (P54855 whole entry): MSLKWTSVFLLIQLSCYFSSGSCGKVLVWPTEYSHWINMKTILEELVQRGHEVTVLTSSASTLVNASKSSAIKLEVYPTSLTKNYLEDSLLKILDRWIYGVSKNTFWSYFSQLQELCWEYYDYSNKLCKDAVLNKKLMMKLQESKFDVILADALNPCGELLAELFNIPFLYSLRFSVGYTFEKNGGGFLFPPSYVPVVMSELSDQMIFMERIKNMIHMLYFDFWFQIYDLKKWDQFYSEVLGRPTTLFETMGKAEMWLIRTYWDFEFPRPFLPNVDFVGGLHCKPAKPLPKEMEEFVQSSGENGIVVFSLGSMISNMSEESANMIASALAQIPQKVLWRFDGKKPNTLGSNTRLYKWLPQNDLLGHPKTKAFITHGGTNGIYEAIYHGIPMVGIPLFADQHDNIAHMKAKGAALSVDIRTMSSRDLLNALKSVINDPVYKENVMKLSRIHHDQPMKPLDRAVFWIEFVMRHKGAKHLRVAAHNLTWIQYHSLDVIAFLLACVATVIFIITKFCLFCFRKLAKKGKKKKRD
Description: Activity of human UGT2B15 expressed in insect cells assessed as reduction in compound level after 30 mins. As to conditions: 0.5 h. The data set is classed as ADME.

Data set [7] in a line: Unbound fraction during UGT-mediated glucuronidation in human intestinal microsomes.
The target of data set [8] is T5, UDP-glucuronosyltransferase 1A1 (Homo sapiens, UniProt P22309).
T5 sequence (P22309 whole entry): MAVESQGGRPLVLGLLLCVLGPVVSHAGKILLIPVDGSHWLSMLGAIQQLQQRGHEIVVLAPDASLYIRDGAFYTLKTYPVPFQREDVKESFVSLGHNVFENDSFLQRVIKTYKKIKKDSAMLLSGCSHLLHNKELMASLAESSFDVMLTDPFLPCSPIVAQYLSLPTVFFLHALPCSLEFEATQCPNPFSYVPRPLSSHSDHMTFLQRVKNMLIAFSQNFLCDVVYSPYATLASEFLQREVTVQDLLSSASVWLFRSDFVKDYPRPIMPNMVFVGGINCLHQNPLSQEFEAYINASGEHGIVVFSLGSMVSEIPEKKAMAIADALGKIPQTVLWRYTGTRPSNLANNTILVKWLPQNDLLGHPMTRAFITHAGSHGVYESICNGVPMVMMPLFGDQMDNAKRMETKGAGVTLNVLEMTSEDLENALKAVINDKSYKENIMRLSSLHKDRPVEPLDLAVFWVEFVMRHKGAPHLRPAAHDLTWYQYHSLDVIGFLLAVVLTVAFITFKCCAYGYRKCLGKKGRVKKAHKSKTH
Description: Activity of human UGT1A1 expressed in insect cells assessed as reduction in compound level after 30 mins. The class given is ADME. As to conditions: 0.5 h.

Data set [9] in a line: Intrinsic clearance in human intestinal microsomes assessed UGT-mediated glucuronidation clearance.
A further data set can be described thus: in vitro. As to conditions: human, blood and plasma.
Data set [10] is described as follows: Unbound intrinsic clearance in human intestinal microsomes assessed CYP450-mediated glucuronidation clearance.
A short description of data set [11]: Bioavailability in human. The data set is classed as ADME, organism-based. As to conditions: in vivo.
Data set [12] is described as follows: Intrinsic clearance in human intestinal microsomes assessed CYP450-mediated glucuronidation clearance. The following applies: microsomes.

Description for in vitro: Ratio of drug level in blood to plasma in human

As to `Cc1c(Cl)cccc1Nc1ccccc1C(=O)O` [TOLFENAMIC ACID], the Drug metabolism result in [1], in data set [3], in [4], in data set [6] and in data set [8] was “metabolite_detected” throughout. This molecule also showed a CL free in data set [2] of 176 µL/min/mg. Further, the Papp in data set [5] turned out to be 14 ×10⁻⁶ cm/s. This molecule also displayed a clearance in the data set “clinical” of 2.2 mL/min/kg. The free fraction (fraction unbound) in data set [7] (intestinal microsomes) is 0.88. Further, the intrinsic clearance (microsomal CLint) in [9] (intestinal microsomes) came to 155 µL/min/mg. In “in vitro”, the blood plasma ratio is 0.66.
For `Cc1ccc(C)c(OCCCC(C)(C)C(=O)O)c1` [GEMFIBROZIL], the CL free entry in [10] is “metabolite_not_detected”; in data set [2], 17.5 µL/min/mg. In [11], this molecule displayed a bioavailability of 100%. Moreover, the Drug metabolism entry in data set [3] is recorded as “metabolite_detected”. Also, the apparent permeability (Papp) in data set [5] was less than 0.1 ×10⁻⁶ cm/s. Moreover, the fraction unbound in data set [7] (microsomes) is 0.97. Also, in data set [12], the CL result is listed as “metabolite_not_detected”. Moreover, the intrinsic clearance (microsomal CLint) in [9] (microsomes) was 17 µL/min/mg. Moreover, in “in vitro”, the blood plasma ratio amounted to 0.58.
